For one assay, the target named is T1, human ROCK-II (Homo sapiens, UniProt O75116).
T1 construct: human ROCK-II (amino acids 11-552); His6 (N); purchased Eurofins 14-451-K; host or cells: baculovirus infected SF21 insect cells
Briefly: ROCK-II kinase assay (ADP-Glo). The assay is classed as biochemical. As to conditions: 10 μM ATP, 15 min preincubation, 30 min at 22° C. Here is the method:
ROCK-II-inhibitory activity of compounds of the present invention was quantified employing the ROCK-II assay as described in the following paragraphs. In essence, the enzyme activity is measured by quantification of the adenosine-di-phosphate (ADP), which is generated as a co-product of the enzyme reaction, via the “ADP-Glo™ Kinase Assay” kit from the company Promega. This detection system works as follows: In a first step the adenosine-tri-phosphate (ATP) not consumed in the kinase reaction is quantitatively converted to cAMP employing an adenylate cyclase (“ADP-Glo-reagent”), then the adenylate cyclase is stopped and the ADP generated in the kinase reaction converted to ATP which generates in a luciferase-based reaction a glow-luminescence signal (“Kinase Detection Reagent”).
As substrate for the kinase reaction the biotinylated peptide biotin-Ahx-[…] (C-terminus in amide form) was used which can be purchased e.g. from the company Biosyntan (Berlin-Buch, Germany).
The concentration of ROCK-II was adjusted depending of the activity of the enzyme lot and was chosen appropriate to have the assay in the linear range, a typical concentration is about 5 nM. The reaction was stopped by the addition of 2.5 μl of “ADP-Glo-reagent” (1:1, 5 fold diluted) and the resulting mixture was incubated at 22° C. for 1 h to convert the ATP not consumed in the kinase reaction completely to cAMP. […] The amount of emitted light was taken as a measure for the amount of ADP generated and thereby for the activity of the ROCK-II.
On the technique in general: ADP-Glo turns the ADP formed in a reaction into a luminescent signal.

The target of another assay is T2, human TBK1 (Homo sapiens, UniProt Q9UHD2).
T2 construct: Recombinant full-length N-terminally His-tagged human TBK1; His (N); purchased Life Technologies PR5618B; host or cells: insect cells
T2 sequence (Q9UHD2 1-729): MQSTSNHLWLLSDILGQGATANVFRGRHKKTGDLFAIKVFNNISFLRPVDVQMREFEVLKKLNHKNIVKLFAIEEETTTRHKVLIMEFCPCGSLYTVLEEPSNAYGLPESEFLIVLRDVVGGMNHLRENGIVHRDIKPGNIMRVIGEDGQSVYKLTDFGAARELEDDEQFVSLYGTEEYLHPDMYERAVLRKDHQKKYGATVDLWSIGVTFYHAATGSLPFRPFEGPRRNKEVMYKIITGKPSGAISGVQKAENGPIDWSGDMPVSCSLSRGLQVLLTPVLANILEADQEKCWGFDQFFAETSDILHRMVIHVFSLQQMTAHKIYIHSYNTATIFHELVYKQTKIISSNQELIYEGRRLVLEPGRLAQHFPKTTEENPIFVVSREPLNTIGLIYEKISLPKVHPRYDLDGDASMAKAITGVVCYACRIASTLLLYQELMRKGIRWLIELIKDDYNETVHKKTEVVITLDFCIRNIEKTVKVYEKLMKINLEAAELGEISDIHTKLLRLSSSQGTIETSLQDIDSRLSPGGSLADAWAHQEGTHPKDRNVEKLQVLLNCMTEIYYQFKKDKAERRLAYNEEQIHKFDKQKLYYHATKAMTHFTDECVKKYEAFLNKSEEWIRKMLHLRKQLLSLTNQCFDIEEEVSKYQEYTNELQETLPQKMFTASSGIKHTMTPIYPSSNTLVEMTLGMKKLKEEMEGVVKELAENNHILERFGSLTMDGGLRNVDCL
Description: TBK1 high ATP kinase assay (TR-FRET). The assay is classed as biochemical. As to conditions: 1 mM ATP, selectivity assay, 15 min preincubation. Here is the method:
TBK1 High ATP Kinase Assay
TBK1-inhibitory activity of compounds of the present invention at a high ATP concentration after preincubation of enzyme and test compounds was quantified employing the TR-FRET-based TBK1 assay as described in the following paragraphs.
Recombinant full-length N-terminally His-tagged human TBK1, expressed in insect cells and purified by Ni-NTA affinity chromatography, was purchased from Life Technologies (Cat. No PR5618B) and used as enzyme. As substrate for the kinase reaction biotinylated peptide biotin-Ahx-[…] (C-terminus in amide form) was used which can be purchased e.g. form the company Biosyntan (Berlin-Buch, Germany).
The concentration of TBK1 was adjusted depending of the activity of the enzyme lot and was chosen appropriate to have the assay in the linear range, typical concentrations were in the range of 0.002-0.004 μg/mL. The reaction was stopped by the addition of 3 μL of a solution of TR-FRET detection reagents (0.33 μM streptavidine-XL665 [Cisbio Bioassays, Codolet, France], 2.5 nM anti-phosho-Serine antibody [Merck Millipore, “STK antibody”, cat. #35-002] and 1.25 nM LANCE EU-W1024 labeled anti-mouse IgG antibody [Perkin-Elmer, product no. AD0077]) in an aqueous EDTA-solution (167 mM EDTA, 0.13% (w/v) bovine serum albumin in 100 mM HEPES/NaOH pH 7.5).
(Time-resolved FRET reads energy transfer from a long-lived donor to a nearby acceptor.)

The target in the next assay is MAP4K1 (Homo sapiens, UniProt Q92918). Briefly: MAP4K1 binding competition assay (TR-FRET, Tracer 222).

Structures are written as SMILES. pIC50: −log10 of the molar value. Where only a bound is given, the exact number is not on record here.

T1 sequence (O75116 11-552): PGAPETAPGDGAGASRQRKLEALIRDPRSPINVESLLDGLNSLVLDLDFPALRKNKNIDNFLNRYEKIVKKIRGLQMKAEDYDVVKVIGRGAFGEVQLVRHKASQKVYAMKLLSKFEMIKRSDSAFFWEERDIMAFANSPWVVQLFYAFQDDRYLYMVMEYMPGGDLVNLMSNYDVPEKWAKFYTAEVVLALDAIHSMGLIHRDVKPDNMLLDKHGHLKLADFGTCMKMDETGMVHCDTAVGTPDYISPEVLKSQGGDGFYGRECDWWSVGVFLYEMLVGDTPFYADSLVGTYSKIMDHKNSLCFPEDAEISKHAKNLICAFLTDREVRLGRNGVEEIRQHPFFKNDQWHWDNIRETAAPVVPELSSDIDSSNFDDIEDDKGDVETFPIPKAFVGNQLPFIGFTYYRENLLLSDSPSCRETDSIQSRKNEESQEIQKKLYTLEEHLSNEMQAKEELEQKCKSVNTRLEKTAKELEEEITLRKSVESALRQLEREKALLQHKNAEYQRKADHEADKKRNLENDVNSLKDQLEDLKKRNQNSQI
Sequence of MAP4K1 (Q92918 whole entry): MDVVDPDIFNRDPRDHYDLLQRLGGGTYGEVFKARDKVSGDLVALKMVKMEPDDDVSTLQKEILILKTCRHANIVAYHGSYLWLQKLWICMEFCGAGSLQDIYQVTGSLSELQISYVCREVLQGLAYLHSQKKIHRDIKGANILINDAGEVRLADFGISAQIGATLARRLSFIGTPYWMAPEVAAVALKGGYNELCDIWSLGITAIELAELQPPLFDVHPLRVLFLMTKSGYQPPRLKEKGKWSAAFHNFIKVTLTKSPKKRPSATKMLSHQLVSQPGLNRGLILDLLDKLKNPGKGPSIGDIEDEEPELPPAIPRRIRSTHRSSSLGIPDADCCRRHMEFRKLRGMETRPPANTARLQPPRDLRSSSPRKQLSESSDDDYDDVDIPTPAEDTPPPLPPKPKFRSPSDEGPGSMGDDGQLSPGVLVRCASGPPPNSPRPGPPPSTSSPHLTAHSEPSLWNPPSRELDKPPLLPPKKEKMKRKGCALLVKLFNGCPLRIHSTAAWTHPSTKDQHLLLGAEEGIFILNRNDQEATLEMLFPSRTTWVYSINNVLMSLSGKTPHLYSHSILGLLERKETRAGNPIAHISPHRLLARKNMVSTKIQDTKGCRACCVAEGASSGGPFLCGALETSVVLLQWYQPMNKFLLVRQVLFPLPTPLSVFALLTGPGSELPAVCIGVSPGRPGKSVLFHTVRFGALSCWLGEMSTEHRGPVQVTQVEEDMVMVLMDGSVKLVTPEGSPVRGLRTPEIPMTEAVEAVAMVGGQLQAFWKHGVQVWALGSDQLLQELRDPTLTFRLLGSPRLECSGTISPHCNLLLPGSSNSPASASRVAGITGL

`Fc1cc(NC2=NCC3(CCOCC3)CO2)cc(F)c1Oc1ccnc2[nH]cc(C3(C(F)(F)F)CCC3)c12` [Example 2, N-[3,5-difluoro-4-({3-[1-(trifluoromethyl)cyclobutyl]-1H-pyrrolo[2,3-b]pyridin-4-yl}oxy)phenyl]-2,9-dioxa-4-azaspiro[5.5]undec-3-en-3-amine]: the figures for the pIC50 against human ROCK-II, against human TBK1 and at MAP4K1 were 5.72, < 4.70 and 8.38, respectively.
As to `Fc1cc(NC2=NCC3(CCOC3)CO2)cc(F)c1Oc1ccnc2[nH]cc(C3(C(F)(F)F)CC3)c12` (racemic) [Example 5, (+/−)-N-[3,5-difluoro-4-({3-[1-(trifluoromethyl)cyclopropyl]-1H-pyrrolo[2,3-b]pyridin-4-yl}oxy)phenyl]-2,7-dioxa-9-azaspiro[4.5]dec-8-en-8-amine], the pIC50 (as a rule, the negative decadic logarithm of the IC50, by convention in mol/L) at human TBK1 was < 4.70.
Still for that read-out and setting: as for `Fc1cc(NC2=NCC3(CCOC3)CO2)cc(F)c1Oc1ccnc2[nH]cc(C3(C(F)(F)F)CC3)c12` (single isomer, unassigned; enantiomer 2) [Example 7, N-[3,5-difluoro-4-({3-[1-(trifluoromethyl)cyclopropyl]-1H-pyrrolo[2,3-b]pyridin-4-yl}oxy)phenyl]-2,7-dioxa-9-azaspiro[4.5]dec-8-en-8-amine (single enantiomer 2)], the figure is < 4.70.
On to `Fc1cc(NC2=NCC3(CC3)CO2)cc(F)c1Oc1ccnc2[nH]cc(C3(C(F)(F)F)CCC3)c12` [Example 3, N-[3,5-difluoro-4-({3-[1-(trifluoromethyl)cyclobutyl]-1H-pyrrolo[2,3-b]pyridin-4-yl}oxy)phenyl]-5-oxa-7-azaspiro[2.5]oct-6-en-6-amine], for which the pIC50 at human ROCK-II is 5.80; against human TBK1 it was < 4.70; at MAP4K1, 8.40.
For `CC1(C)CN=C(Nc2cc(F)c(Oc3ccnc4[nH]cc(C5(C(F)(F)F)CCC5)c34)c(F)c2)OC1` [Example 4, N-[3,5-difluoro-4-({3-[1-(trifluoromethyl)cyclobutyl]-1H-pyrrolo[2,3-b]pyridin-4-yl}oxy)phenyl]-5,5-dimethyl-5,6-dihydro-4H-1,3-oxazin-2-amine], in that order: 5.39, < 4.70 and 8.21.
For `Fc1cc(NC2=NCC3(CCC3)CO2)cc(F)c1Oc1ccnc2[nH]cc(C3(C(F)(F)F)CC3)c12` [Example 12, N-[3,5-difluoro-4-({3-[1-(trifluoromethyl)cyclopropyl]-1H-pyrrolo[2,3-b]pyridin-4-yl}oxy)phenyl]-6-oxa-8-azaspiro[3.5]non-7-en-7-amine], on human TBK1, the negative-log IC50 (pIC50) is < 4.70.
The same measure, in the same setting: then `Fc1cc(NC2=NCC3(CC3)CO2)cc(F)c1Oc1ccnc2[nH]cc(C3(C(F)(F)F)CC3)c12` [Example 10, N-[3,5-difluoro-4-({3-[1-(trifluoromethyl)cyclopropyl]-1H-pyrrolo[2,3-b]pyridin-4-yl}oxy)phenyl]-5-oxa-7-azaspiro[2.5]oct-6-en-6-amine], with < 4.70; and `Fc1cc(NC2=NCC3(CCOC3)CO2)cc(F)c1Oc1ccnc2[nH]cc(C3(C(F)(F)F)CC3)c12` (single isomer, unassigned; enantiomer 1) [Example 6, N-[3,5-difluoro-4-({3-[1-(trifluoromethyl)cyclopropyl]-1H-pyrrolo[2,3-b]pyridin-4-yl}oxy)phenyl]-2,7-dioxa-9-azaspiro[4.5]dec-8-en-8-amine (single enantiomer 1)], with < 4.70.
For the molecule `Fc1cc(NC2=NCC3(CCOCC3)CO2)cc(F)c1Oc1ccnc2[nH]cc(C3(C(F)(F)F)CC3)c12` [Example 11, N-[3,5-difluoro-4-({3-[1-(trifluoromethyl)cyclopropyl]-1H-pyrrolo[2,3-b]pyridin-4-yl}oxy)phenyl]-2,9-dioxa-4-azaspiro[5.5]undec-3-en-3-amine], the negative logarithm of the IC50 (pIC50) on human TBK1 was < 4.70.
Consider `Fc1cc(NC2=NCC3(COC3)CO2)cc(F)c1Oc1ccnc2[nH]cc(C3(C(F)(F)F)CCC3)c12` [Example 14, N-[3,5-difluoro-4-({3-[1-(trifluoromethyl)cyclobutyl]-1H-pyrrolo[2,3-b]pyridin-4-yl}oxy)phenyl]-2,6-dioxa-8-azaspiro[3.5]non-7-en-7-amine], for which the figures for the pIC50 at human ROCK-II, against human TBK1 and at MAP4K1 were 5.89, < 4.70 and 8.16, respectively.
With `CC1(C)CN=C(Nc2cc(F)c(Oc3ccnc4[nH]cc(C5(C(F)(F)F)CC5)c34)c(F)c2)OC1` [Example 9, N-[3,5-difluoro-4-({3-[1-(trifluoromethyl)cyclopropyl]-1H-pyrrolo[2,3-b]pyridin-4-yl}oxy)phenyl]-5,5-dimethyl-5,6-dihydro-4H-1,3-oxazin-2-amine], at human TBK1, the pIC50 is < 4.70.
Consider `Fc1cc(NC2=NCC3(CCOC3)CO2)cc(F)c1Oc1ccnc2[nH]cc(C3(C(F)(F)F)CCC3)c12` (racemic) [Example 13, (+/−)-N-[3,5-difluoro-4-({3-[1-(trifluoromethyl)cyclobutyl]-1H-pyrrolo[2,3-b]pyridin-4-yl}oxy)phenyl]-2,7-dioxa-9-azaspiro[4.5]dec-8-en-8-amine], for which the pIC50 against human ROCK-II was 5.92; at human TBK1, < 4.70; at MAP4K1 it was 8.21.
For `Fc1cc(NC2=NCC3(COC3)CO2)cc(F)c1Oc1ccnc2[nH]cc(C3(C(F)(F)F)CC3)c12` [Example 8, N-[3,5-difluoro-4-({3-[1-(trifluoromethyl)cyclopropyl]-1H-pyrrolo[2,3-b]pyridin-4-yl}oxy)phenyl]-2,6-dioxa-8-azaspiro[3.5]non-7-en-7-amine], in that order: 6.30, < 4.70 and 8.30.
In the same order, the values of `Fc1cc(NC2=NCC3(CCC3)CO2)cc(F)c1Oc1ccnc2[nH]cc(C3(C(F)(F)F)CCC3)c12` [Example 1, N-[3,5-difluoro-4-({3-[1-(trifluoromethyl)cyclobutyl]-1H-pyrrolo[2,3-b]pyridin-4-yl}oxy)phenyl]-6-oxa-8-azaspiro[3.5]non-7-en-7-amine] are 5.25, < 4.70 and 8.07.
